Measurements: patent US6500856B2, “Cyclic AMP-specific phosphodiesterase inhibitors” (Icos Corporation, priority 1999, dated 2002)
Read-outs that look alike come from different tables or passages of the source.

Key:
recombinant human PDE4 [1] = system: T1, recombinant human PDE4; assay: PDE4 inhibition, recombinant human PDE4 (charcoal separation PDE assay); assay type: biochemical
T1 construct: PDE4 IC50; other: human recombinant PDE4
Description: The compounds of structural formula (II) were tested for an ability to inhibit PDE4. The ability of a compound to inhibit PDE4 activity is related to the IC50 value for the compound, i.e., the concentration of inhibitor required for 50% inhibition of enzyme activity. The IC50 value for compounds of structural formula (II) were determined using recombinant human PDE4.
Phosphodiesterase activity of the preparations was determined as follows. PDE assays utilizing a charcoal separation technique were performed essentially as described in Loughney et al. (1996). In this assay, PDE activity converts [32P]cAMP or [32P]cGMP to the corresponding [32P]5′-AMP or [32P]5′-GMP in proportion to the amount of PDE activity present. The [32P]5′-AMP or [32P]5′-GMP then was quantitatively converted to free [32P]phosphate and unlabeled adenosine or guanosine by the action of snake venom 5′-nucleotidase. […] The assay was performed at 30° C. in a 100 μL reaction mixture containing (final concentrations) 40 mM Tris HCl (pH 8.0), 1 μM ZnSO4, 5 mM MgCl2, and 0.1 mg/mL bovine serum albumin (BSA). Alternatively, in assays assessing PDEl-specific activity, incubation mixtures further incorporated the use of 0.1 mM CaCl2 and 10 μg/mL calmodulin. PDE enzyme was present in quantities that yield <30% total hydrolysis of substrate (linear assay conditions). The assay was initiated by addition of substrate ([…] [32P]cAMP or cGMP), and the mixture was incubated for 12 minutes. Seventy-five (75) μg of Crotalus atrox venom then was added, and the incubation was continued for 3 minutes (15 minutes total). The reaction was stopped by addition of 200 μL of activated charcoal (25 mg/mL suspension in 0.1 M NaH2PO4, pH 4). After centrifugation (750×g for 3 minutes) to sediment the charcoal, a sample of the supernatant was taken for radioactivity determination in a scintillation counter and the PDE activity was calculated.
The table below illustrates the ability of compounds of formula (II) to inhibit PDE4 activity and TNFα release in vitro. In the following table, the IC50 values were determined against human recombinant PDE4.

[2] = system: human peripheral blood lymphocytes (PBL); assay: Lipopolysaccharide-stimulated TNFα release from human peripheral blood lymphocytes; assay type: cell-based; details: LPS-stimulated TNFα release from human PBL
Description: The compounds of structural formula (II) also were tested for an ability to reduce TNFα secretion in human peripheral blood lymphocytes. The ability to reduce TNFα secretion is related to the EC50 values (i.e., the effective concentration of the compound capable of inhibiting 50% of the total TNFα).
To assess the ability of a compound to reduce TNFα secretion in human peripheral blood lymphocytes (PBL), the following tests were performed.
Heparinized blood (approximately 30 mL) drawn from human volunteers was mixed 1:1 with Dulbecco's modified phosphate-buffered saline. This mixture was mixed 1:1 with HISTOPAQUE® and centrifuged at 1,500 rpm at room temperature without braking in the swinging bucket of a Beckman model TJ6 centrifuge. Erythrocytes were centrifuged to the bottom of the tubes, and serum remained at the surface of the tubes. A layer containing lymphocytes sedimented between the serum and HISTOPAQUE® layers, and was removed by aspiration to a fresh tube. The cells were quantified and adjusted to 3×10^6 cells/mL and a 100 μL aliquot is placed into the wells of a 96 well plate. Test compounds and RPMI media (Gibco/BRL Life Sciences) are added to each of the wells 15 minutes prior to addition of bacterial LPS ([…]). The mixture was allowed to incubate for 20 hours at 37° C. in a humidified chamber. The cells then were separated by centrifuging at 800 rpm for 5 minutes at room temperature. An aliquot of 180 μL of supernatant was transferred to a new plate for determination of TNFα concentration. TNFα protein in the cell supernatant fluids was measured using a commercially available enzyme-linked immunosorbent assay (ELISA) (CYTOSCREEN® Immunoassay Kit from Biosource International).
The cell-based assay provided the following results for various pyrrolidine compounds of the present invention. The EC50 values (i.e., effective concentration of the compound capable of inhibiting 50% of the total TNFα) illustrate the ability of the present compounds to inhibit LPS-stimulated TNFα release from human PBL.

female Balb/c mice = assay: Combined mouse endotoxin-stimulated TNFα release and locomotor activity assay (spontaneous mobility); assay type: in vivo; details: i.p., 50 mg/kg dose, locomotor activity
Description: (§1) The purpose of this study was to determine the efficacy of PDE4 inhibitors in vivo in an LPS mouse model together with a determination with respect to central nervous system (CNS) side-effects manifested by a decrease in spontaneous mobility.
(§2) The test animals were female Balb/c mice, having an average weight of about 20 g. The PDE4 inhibitors, formulated in 30% Cremophor® EL, were administered via intraperitoneal (i.p.) injections at doses of 0.1, 1.0, 10.0, and 100 mg/kg. Individual dose volumes (about 150 μL) were adjusted based on the body weights measured. One hour later, 5 mg/kg LPS in a final volume of 200 μL was injected via the tail vein to each animal. Ninety minutes following the LPS treatment, the animals were bled and serum samples were collected before being stored at −70° C. until assayed.
(§3) Movement of the X-Y plane, or rearina up on the hind legs, was quantified by counting the number of “light-beam” crosses per unit of time. A decrease in the number of activity events is directly proportional to the mobility or immobilization of the animal. The quantitative scoring correlated well with the subjective measurements described above.
(§4) The following table summarizes the locomotor activity assay (mobility, % activity) results obtained by the above-described method:
(§5) effective dose, in mg/kg, that decreases spontaneous mobility 50% of control.

[3] = as above; assay type: in vivo; details: female, Balb/c, in vivo, ip, locomotor activity, read-out: ED50 (effective dose that decreases spontaneous mobility 50% of control)
Description: as §1, §2, §3, §4, §5

[4] = in vivo; cited from earlier work
recombinant human PDE4 [5] = details: prior art value; read-out: IC50 with respect to inhibiting recombinant human PDE4 (reported); cited from earlier work

With COC(=O)N1CC(c2ccc(OC)c(OC3Cc4ccccc4C3)c2)[C@](C)(/C(C)=N\O)C1 (mixture of isomers) [Example 3] the IC50 (recombinant human PDE4 [1]) was 189 nM and the EC50 ([2]; Homo sapiens, Lymphocyte) was 551 nM.

In the case of CN/N=C(\C)C1(C)CN(C(=O)OC)CC1c1ccc(OC)c(OC2CCCC2)c1 (single isomer, unassigned) [Example 1a], the IC50 (recombinant human PDE4 [1]) is reported as 116 nM, the EC50 [2] is reported as 76 nM and the “Mobility (% activity at 50 mg/kg dose)” value (female Balb/c mice) is reported as 64% activity.

In the case of CN/N=C(\C)C1(C)CN(C(=O)OC)CC1c1ccc(OC)c(OC2CCCC2)c1 (single isomer, unassigned) [Example 1b], the IC50 (recombinant human PDE4 [1]) is reported as 2.2 nM, the EC50 [2] is reported as 2.2 nM and the “Mobility (% activity at 50 mg/kg dose)” value (female Balb/c mice) is reported as 6% activity.

For COC(=O)N1CC(c2ccc(OC)c(OC3CCCC3)c2)[C@](C)(/C(C)=N\O)C1 (some centres unmarked) [Example 2a], the IC50 (recombinant human PDE4 [1]) was 49 nM, the EC50 ([2]; Homo sapiens, Lymphocyte) was 281 nM and the ED50 [3] was over 50 mg/kg.

With COC(=O)N1CC(c2ccc(OC)c(OC3CCCC3)c2)[C@@](C)(/C(C)=N\O)C1 (some centres unmarked) [Example 2b] the IC50 (recombinant human PDE4 [1]) was 2.2 nM, the EC50 ([2]; Homo sapiens, Lymphocyte) was 23 nM and the ED50 [3] was 7 mg/kg.

In the case of COc1ccc([C@@H]2CNC(=O)C2)cc1OC1CCCC1 [R-rolipram], the “Emetic potency relative to the (+)-enantiomer” value [4] is given as “about ten-fold more emetic”.

For COc1ccc(C2CNC(=O)C2)cc1OC1CCCC1 (centres unmarked) [Rolipram], the IC50 (recombinant human PDE4 [5]) is listed as about 200 nM.

For COC(=O)N1CC(c2ccc(OC)c(OC3CCCC3)c2)C(C)(C(C)=O)C1 (centres unmarked) [formula (I)], the IC50 (recombinant human PDE4 [5]) is given as about 2 nM.
